Experimental data published in article PMC10974084, “Combination of Betulinic Acid Fragments and Carbonic Anhydrase Inhibitors—A New Drug Targeting Approach” (Pharmaceutics, 2024).
Read-outs that look alike come from different tables or passages of the source.

Assays:
Hs578T spheroids = experiment: Spheroid cytotoxicity assay (luciferase), Hs578T; assay type: cell-based, human; conditions: 7 days of treatment, 3 independent experiments, read-out: IC50 Hs578T spheroids
Experimental: (§1) To determine cytotoxicity in the 3D tumor models, spheroid cytotoxicity assays were performed as previously described. […] For generation of single tumor spheroids, tumor cells resuspended in culture medium were seeded into 96-well plates, which were coated before with 0.7% agarose (SeaKem® GTG™ Agarose, Lonza, Basel, Switzerland). After the formation of spheroids (48 h), they were treated with serial dilutions of compounds. Measurements of luciferase activity were performed on day 7, after supplementation with D-luciferin (Perkin Elmer, Rodgau, Germany), on a Tecan Spark microplate reader (Tecan, Männedorf, Switzerland). Generation of dose-response curves and calculation of IC50 values including standard deviations were accomplished using GraphPad Prism8.
(§2) Since the tumor cells stably express luciferase, analysis of spheroid growth and response to therapy is accomplished by measurement of bioluminescent signal intensity.

MDA-MB-231 spheroids = experiment: Spheroid cytotoxicity assay (luciferase), MDA-MB-231; assay type: cell-based, human; conditions: 7 days of treatment, 3 independent experiments, read-out: IC50 MDA-MB-231 spheroids
Experimental: as §1, §2

[1] = test system: MCF-7 breast cancer cells; experiment: SRB cytotoxicity assay, MCF-7; assay type: cell-based; conditions: Homo sapiens, MCF7; SRB assay, 96 h incubation, mean ± SD; read-out: IC50 MCF-7
Experimental: (§3) All of the compounds were dissolved in dimethyl sulfoxide (DMSO) to achieve a 20 mM stock solution. Cells were seeded in cell culture flasks 24 h before treatment. The treatment was performed for 24 h.
(§4) The cytotoxicity of the drugs was determined in 2D tumor models using sulforhodamine B (SRB) assays. Treatment started 24 h after seeding the tumor cells in 96-well plates as previously described.

[2] = test system: A2780 ovarian cancer cells; experiment: SRB cytotoxicity assay, A2780; assay type: cell-based; conditions: Homo sapiens, A2780; SRB assay, 96 h incubation, mean ± SD; read-out: IC50 A2780
Experimental: as §3, §4

A375 melanoma cells = experiment: SRB cytotoxicity assay, A375; assay type: cell-based; conditions: Homo sapiens, A-375; SRB assay, 96 h incubation, mean ± SD; read-out: IC50 A375
Experimental: as §3, §4

[3] = target: recombinant human carbonic anhydrase IX (Homo sapiens, UniProt Q16790); experiment: hCA IX esterase assay with p-nitrophenyl acetate
Experimental: In this measurement, the enzymatically catalyzed hydrolysis of p-nitrophenyl acetate to p-nitrophenol was investigated. […] This was followed by measurement of the v-S-characteristics with inhibitor. […] For each run, 2 experimental series (biological replicate) were prepared simultaneously and measured for 10 min at a measurement interval of 8 s, also as a two-fold determination (technical replicate). […] The resulting reaction velocities, calculated from a calibration curve with p-nitrophenole under the same conditions, were plotted against the substrate concentration. The kinetic evaluation for competitive inhibition was then performed with the program GraphPad Prism.

[4] = Homo sapiens, MDA-MB-231, 168 h

Row | Ki [3] [µM] | Compound | IC50 (Hs578T spheroids) [µM] | IC50 (MDA-MB-231 spheroids) [µM] | IC50 [1] [µM] | IC50 [2] [µM] | IC50 (A375 melanoma cells) [µM] | melting point [°C] | IC50 (Hs578T spheroids; Homo sapiens, Hs-578T, 168 h) [µM] | IC50 (MDA-MB-231 spheroids; [4]) [µM] | reduction of hCA IX activity ([3]; 10 µM of the compound, p-nitrophenyl acetate) [%] | remaining activity at 10 µM ([3]; read-out: residual activity (r.a.) of hCA IX) [%]
1 |  | NS(=O)(=O)c1ccc(NC(=O)Nc2ccc(F)cc2)cc1 [Compound U-104, reference compound] | 83.9 ± 12.4 | 33.5 ± 7.6 |  |  |  |  |  |  |  | 
2 |  | C=C(C)C1CCC2(C(=O)NCCOCCOC(=O)CCC(=O)O)CCC3(C)C(CCC4C5(C)CCC(OC(C)=O)C(C)(C)C5CCC43C)C12 (stereo not drawn) [Compound 11] |  |  | 7.3 ± 0.4 | 12.3 ± 1.5 | 10.5 ± 0.6 | 78 to 82 |  |  |  | 
3 |  | C=C(C)C1CCC2(C(=O)NCCOCCO)CCC3(C)C(CCC4C5(C)CCC(OC(C)=O)C(C)(C)C5CCC43C)C12 (stereo not drawn) [Compound 10] |  |  | 5.9 ± 0.2 | 9.5 ± 0.9 | 4.3 ± 0.2 | 205 |  |  |  | 
4 |  | C=C(C)C1CCC2(C(=O)NCCOCCOC(=O)CCC(=O)Nc3nnc(S(N)(=O)=O)s3)CCC3(C)C(CCC4C5(C)CCC(OC(C)=O)C(C)(C)C5CCC43C)C12 (stereo not drawn) [Compound 12] |  |  | > 100 | 35.1 ± 3.4 | > 100 | 92 to 94 | > 100 | > 100 | 40 | 60
5 | 0.146 | NS(=O)(=O)c1nnc(NC(=O)CCC(=O)NCCOCCO)s1 [Compound 8, N-[5-(Aminosulfonyl)-1,3,4-thiadiazol-2-yl]-N’-[2-(2-hydroxyethoxy)-ethyl]-succinamide] |  |  | > 100 | > 100 | > 100 |  | > 100 | > 100 |  | 
